Paper PMC5059851, “Inhibition of Hedgehog-dependent tumors and cancer stem cells by a newly identified naturally occurring chemotype” (Cell Death & Disease, 2016)

What was measured:
[1] = system: Hh target genes (Gli1 and others) in Ptch1^−/− MEFs; assay: qRT-PCR of endogenous Hh target genes in Ptch1−/− MEFs; format: cell-based, mouse; settings: 5 μM, 48 h
Text: For this reason, we focused further studies only on 12. To investigate the inhibitory properties of 12 on Hh pathway, we analyzed endogenous Hh target gene activation in genetically defined Ptch1^−/− mouse embryonic fibroblasts (Ptch1^−/− MEFs) (Figure 2a). In these cells, constitutive activation of the Hh pathway is the consequence of the loss of repressive receptor Ptch1 gene, thus determining high expression levels of Hh target.
Figure 2 Compound 12 inhibits Hh signaling without affecting AP1/Jun and WNT/β-Catenin pathways. (a) The graphs show the Hh target genes expression levels in Ptch1^−/− MEFs treated for 48 h with 12 or DMSO as control. mRNA levels were determined by quantitative real-time PCR (qRT-PCR) normalized to endogenous control (β2-microglobulin and HPRT). Pfkfb3 gene was used as negative control. *P<0.05 versus CTR. […]
(§1) Total RNA was isolated with Trizol (Invitrogen/Life Technologies, Carlsbad, CA, USA) and reverse transcribed with SensiFAST cDNA Synthesis Kit (Bioline Reagents Limited, London, UK). Quantitative real-time PCR (Q-PCR) analysis of Gli1, Gli2, Ptch1, Bmp2, Pfkfb3, CycD1, CycD2, Pcna, Oct4, Nanog, β-2 microglobulin, β-actin and HPRT mRNA expression was performed on each cDNA sample using the VIIA7 Real Time PCR System employing Assay-on-Demand Reagents (Life Technologies). […]

[2] = system: murine Ptch1^+/− MB stem-like cells; assay: MB stem cells neurosphere-forming assay; format: cell-based, mouse; settings: 7 days of treatment, increasing concentrations
Description: (§2) Figure 5 Compound 12 inhibition of Hh-dependent MB tumor cell growth. […] (a and b) After the indicated times, a trypan blue count was performed to determine the growth rate of viable cells. (c) Gli1 mRNA expression levels were determined by qRT-PCR normalized to endogenous control (β2-microglobulin and HPRT). (d–f) Compound 12 inhibits MB-SCs self-renewal. (d) Suspension of single MB-SCs isolated from Ptch1^+/− mice were cultured in stem cell medium to allow the formation of primary neurospheres. Primary neurospheres were dissociated and treated with increasing concentrations of compound 12, Cyclopamine or DMSO only. After 7 days of treatment, the number of secondary neurospheres derived from a known number of single cells was counted. The self-renewal MB-SCs' capability is expressed as percentage of neurosphere-forming cells. (e) Representative bright-field images of tumor neurospheres after compound 12 or Cyclopamine treatment are also shown. (f) MB-SCs isolated from Ptch1^+/− mice MBs were treated for 48 h with compound 12 or DMSO only. qRT-PCR analysis show Hh, proliferation and stemness target mRNA. For qRT-PCR, results were normalized to endogenous control (β2-microglobulin and HPRT). […]
Cell proliferation was evaluated by BrdU detection (Roche, Welwyn Garden City, UK). […] At least 500 nuclei were counted in triplicate, and the number of BrdU-positive nuclei was recorded. […]

[3] = system: Hh pathway readouts, stemness markers and growth genes in MB stem-like cells; assay: qRT-PCR of Hh, proliferation and stemness targets in MB stem-like cells; format: cell-based, mouse; settings: 48 h
Description: as §2, with “cells.” for “cells. (e) Representative bright-field images of tumor neurospheres after compound 12 or Cyclopamine treatment are also shown. (f) MB-SCs isolated from Ptch1^+/− mice MBs were treated for 48 h with compound 12 or DMSO only. qRT-PCR analysis show Hh, proliferation and stemness target mRNA. For qRT-PCR, results were normalized to endogenous control (β2-microglobulin and HPRT).”
as §1

Gli1 mRNA [4] = assay: Gli1 mRNA (qRT-PCR) in ASZ001 BCC cells; format: cell-based, mouse; settings: after drug treatment
Description: After the indicated times, a trypan blue count was performed to determine the growth rate.
(§3) Total RNA was isolated with Trizol (Invitrogen/Life Technologies, Carlsbad, CA, USA) and reverse transcribed with SensiFAST cDNA Synthesis Kit (Bioline Reagents Limited, London, UK). Quantitative real-time PCR (Q-PCR) analysis of Gli1, Gli2, Ptch1, Bmp2, Pfkfb3, CycD1, CycD2, Pcna, Oct4, Nanog, β-2 microglobulin, β-actin and HPRT mRNA expression was performed on each cDNA sample using the VIIA7 Real Time PCR System employing Assay-on-Demand Reagents (Life Technologies).

Gli1 mRNA [5] = assay: Gli1 mRNA (qRT-PCR) in 22Rv1 cells; format: cell-based, human; settings: after treatment
Description: After the indicated times, a trypan blue count was performed to determine the growth rate. […] Results were normalized to endogenous control (β-actin and HPRT).
as §3

[6] = system: Hh target genes in SuFu^−/− MEFs; assay: qRT-PCR of endogenous Hh target genes in SuFu−/− MEFs; format: cell-based, mouse; settings: 48 h
Description: as §3

COc1ccc(C=CC(=O)c2cc(OC)c(OC)cc2OC)cc1OC [Compound 12, 3-(3,4-dimethoxy-phenyl)-1-(2,4,5-trimethoxy-phenyl)-2-propen-1-one]
mRNA levels of endogenous Hh target genes, including Gli1 [1]: significantly reduced
clonogenic self-renewal ability (neurosphere formation) [2]: suppressed
Hh pathway activity in MB stem-like cells (Gli1, Gli2, Ptch1, Nanog, Oct4, cyclins D1 and D2, Pcna mRNAs) [3]: reduced Hh pathway activity
Gli1 mRNA levels in ASZ001 BCC cells (Gli1 mRNA [4]): decrease of Gli1 mRNA levels
Gli1 mRNA levels in 22Rv1 cells (Gli1 mRNA [5]): significant decrease of Gli1 mRNA levels
expression of endogenous Hh target genes in SuFu^−/− MEFs [6]: suppressed the expression of endogenous Hh target genes
